{
  "source": "patent US4395969A",
  "about": "(priority 1981, dated 1983)",
  "key": {"kokanee": {"tested_on": "kokanee", "assay": "Static bioassay, lethal concentration to kokanee", "format": "in vivo, a land-locked subspecies of sockeye salmon", "conditions": "15 C", "description": "(§1) Bioassays utilized water from an artesian well at Moscow, Idaho and from the headwaters of the Palouse River, also in Idaho. The chemical characteristics of the artesian water were analyzed as follows: Total hardness 67-120 mg/l; total dissolved solids, 160-175 mg/l; and pH 7.1. The chemistry of the Palouse River water was analyzed as follows: total hardness 17 mg/l; methyl orange alkalinity 26 mg/l; total dissolved solids, 32 mg/l and pH, 7.0.\n(§2) Fish were acclimated to test temperatures, usually at 5, 7.5, 10, 15 and 20 degrees Celsius (C), at least 60 hours before exposure to toxicants. For fish and crayfish four water baths regulated the temperature of assay aquaria. Each water bath contained a battery of 20 identical 19-liter clear glass containers or 11.4-liter plastic aquaria lined with disposable polyethylene bags and covered with Plexiglass lids to reduce evaporation. For larger fish and large numbers of fish the bioassays were made in two temperature controlled rooms that contained a series of 700-liter circular fiberglass vats and a series of 76- and 91-liter plastic containers.\n(§3) Standard bioassay techniques were used in sorting fish and conducting the tests. Fish were placed in aerated test aquaria overnight to permit fish to recover from stress due to handling and to deprive them of food. The average load varied but most bioassays were conducted with about 1 g of fish per liter of water.\n(§4) Aliquots of organophosphates were dissolved in ethanol and dispensed to the aquaria to provide concentrations suitable for obtaining the LC0 and LC50 of desirable fish and the LC50 and LC100 of target fish. Control fish were conditioned in the same manner as the test fish, but no chemical was added to the control vessels during the assays. After the addition of a chemical, observations were made mainly at 3, 6, 12, 24, 48, 96, and 192 h. The weight and fork length of fish were obtained when fishes were sacrificed.\n(§5) Delineation bioassays determined primarily the LC50 and LC100 of sucker and stickleback and the LC0 and LC50 of salmonids.\n(§6) The statistical LC1, LC50, and LC99 were interpolated and/or extrapolated using probit graph paper to approximate the LC0, LC50, and LC100 when the latter set of values was not closely determined by single concentrations in a series.\n(§7) Threespine stickleback, brook stickleback, bridgelip sucker, white sucker, chinook salmon, coho salmon, sockeye salmon, kokanee, Kamloops trout, cutthroat trout, and brook trout were treated with various concentrations of 2, 2, 2, 1-tetrachloroethyl diethyl phosphate and at various temperatures to determine approximate selectivity and safety indices. The approximate LC50 and LC100 of the target fishes (threespine and brook sticklebacks and bridgelip and white suckers) are tabulated in Table 5. The 96-hour selectivity and safety indices of selected species of salmonids versus the threespine stickleback are tabulated in Table 7."}, "[1]": {"assay": "Static bioassay, lethal concentration to kokanee", "format": "in vivo, a land-locked subspecies of sockeye salmon", "conditions": "kokanee, water, 15 C", "description": "as §1, §2, §3, §4, §5, §6, §7"}, "coho salmon": {"tested_on": "coho salmon", "assay": "Static bioassay, lethal concentration to coho salmon", "format": "in vivo, Oncorhynchus kisutch", "conditions": "10 C", "description": "as §1, §2, §3, §4, §5, §6, §7"}, "[2]": {"assay": "Static bioassay, lethal concentration to coho salmon", "format": "in vivo, Oncorhynchus kisutch", "conditions": "coho salmon, water, 10 C", "description": "as §1, §2, §3, §4, §5, §6, §7"}, "crayfish": {"tested_on": "crayfish", "assay": "Long-term static bioassay, crayfish", "conditions": "2 μg/l; one also missing in control"}, "stickleback": {"tested_on": "stickleback", "assay": "Deactivation with activated carbon, survival of stickleback", "format": "in vivo", "conditions": "2 mg/l; for Mean survival time, bioassay started 18 hours after chemical was added / Mean survival time, bioassay started when chemical was added: river water, 15 C", "description": "A second lot of 5 fish was added to each aquarium 18 hours after the first lot of 10 fish had died or lost their equilibrium. As the life of the first lot of fish was short, the test water was only slightly conditioned by the dying fish and any error introduced by this procedure was relatively small."}, "in vivo": {"assay": "in vivo", "conditions": "steelhead trout"}, "[3]": {"assay": "Half-life in river water with or without river mud, measured by bioassay with stickleback", "format": "physicochemical", "conditions": "river water with layer of river mud; 15 C", "description": "The rate of deactivation was measured by bioassay with stickleback and the data were analyzed by conventional methods."}, "chinook salmon": {"tested_on": "chinook salmon", "conditions": "chinook salmon, in vivo, 96 h"}, "longnose sucker": {"tested_on": "longnose sucker", "assay": "Exploratory bioassay, longnose sucker", "format": "in vivo, C. catastomus", "conditions": "less than 24 h; 15 C; 47 to 61 mm", "description": "Cursory bioassays were made with small numbers of other fishes and a crayfish (Pacifasticus klamathensis) to check on the universal selectivity of the toxicants. The fishes included Arctic grayling (Thymallus arcticus), longnose sucker (C. catastomus), largescale sucker, (C. macrocheilus), and spotted sucker (Minytrema melanops).\nA series of 24-hour bioassays was made with the longnose sucker (1 fish per aquarium) at a concentration range of 0.1 mg/l to 4.5 mg/l of 2, 2-dichlorovinyl diethyl phosphate. The chemical killed the longnose sucker (47 to 61 mm) at a concentration of 0.2 mg/l and higher in less than 24 hours at 15 C.\nThree longnose suckers (about 125 mm) and three Arctic grayling (about 125 mm) were exposed to 10 μg/l of 2, 2, 2, 1-tetrachloroethyl diethyl phosphate. The suckers died between 14 and 22 hours at 13 C. The grayling were not affected in 48-hour biassays."}, "carp": {"tested_on": "carp", "assay": "Bioassay, carp", "format": "in vivo, Cyprinus carpio", "conditions": "for selectivity to carp: in vivo", "description": "In a later bioassay a concentration of 1 mg/l of 2, 2-dichlorovinyl diethyl phosphate killed a 20 g carp (68 mm) in 10 l of artesian well water (load, 2.0 g/l) at 10 C. in 30 hours.\nA subsequent series of bioassays tested concentrations of 0.0, 0.6, 0.8, 1.0, 1.5 and 2.0 mg/l of 2, 2-dichlorovinyl diethyl phosphate with larger carp (fork length range, 115-150 mm; mean weight, 44 g) using 10 fish per concentration (load, 0.7 g/l) and artesian well water at 10 C. A concentration of 2.0 mg/l of the chemical killed 100 percent of the carp in 24 hours and a concentration of 1.5 mg/l killed 90 percent of them in […] and 100 percent in 72 hours. No fish died in the control or at a concentration of 0.6 mg/l in 192-hour bioassays. In contrast the LC0 of salmonids exposed to 2, 2-dichlorovinyl diethyl phosphate varies between 4 and 8 mg/l in 48-hour bioassays and 2 and 6 mg/l in 96-hour bioassays at 10 C. (Table 2)."}},
  "data": [
    {"compound": "CCOP(=O)(OCC)OC(Cl)C(Cl)(Cl)Cl", "note": "(centres unmarked) [2,2,2,1-tetrachloroethyl diethyl phosphate]", "values": [
      {"measurement": "LC0", "setting": "kokanee; 48 h", "result": 30, "unit": "µg/L"},
      {"measurement": "LC0", "setting": "kokanee; 96 h", "result": 20, "unit": "µg/L"},
      {"measurement": "LC0", "setting": "kokanee; 192 h", "result": 20, "unit": "µg/L"},
      {"measurement": "LC50 at 48 h", "setting": "[1]; 48 h", "result": 0.04, "unit": "µg/mL"},
      {"measurement": "LC50 at 96 h", "setting": "[1]; 96 h", "result": 0.03, "unit": "µg/mL"},
      {"measurement": "LC50 at 192 h", "setting": "[1]; 192 h", "result": 0.027, "unit": "µg/mL"},
      {"measurement": "LC0", "setting": "coho salmon; 48 h", "result": 30, "unit": "µg/L"},
      {"measurement": "LC0", "setting": "coho salmon; 96 h", "result": 14, "unit": "µg/L"},
      {"measurement": "LC0", "setting": "coho salmon; 192 h", "result": 8, "unit": "µg/L"},
      {"measurement": "LC50 at 96 h", "setting": "[2]; 96 h", "result": 0.023, "unit": "µg/mL"},
      {"measurement": "LC50 at 192 h", "setting": "[2]; 192 h", "result": 0.015, "unit": "µg/mL"},
      {"measurement": "crayfish missing", "setting": "crayfish", "result": "one"}
    ]},
    {"compound": "CCOP(=O)(OC=C(Cl)Cl)OCC", "note": "[2,2-dichlorovinyl diethyl phosphate]", "values": [
      {"measurement": "effect of activated carbon on mortality", "setting": "stickleback", "result": "delayed mortality"},
      {"measurement": "survival time after 18-hour deactivation period", "setting": "stickleback; 8 and 32 mg/l of carbon", "result": "about tripled"},
      {"measurement": "Mean survival time, bioassay started 18 hours after chemical was added", "setting": "stickleback; activated carbon 0 mg/l", "result": 9.5, "unit": "h"},
      {"measurement": "Mean survival time, bioassay started when chemical was added", "setting": "stickleback; activated carbon 0 mg/l", "result": 7.5, "unit": "h"},
      {"measurement": "Mean survival time, bioassay started 18 hours after chemical was added", "setting": "stickleback; activated carbon 4 mg/l", "result": 8.0, "unit": "h"},
      {"measurement": "Mean survival time, bioassay started when chemical was added", "setting": "stickleback; activated carbon 4 mg/l", "result": 9.2, "unit": "h"},
      {"measurement": "Mean survival time, bioassay started 18 hours after chemical was added", "setting": "stickleback; activated carbon 8 mg/l", "result": 33.5, "unit": "h"},
      {"measurement": "Mean survival time, bioassay started when chemical was added", "setting": "stickleback; activated carbon 8 mg/l", "result": 10.8, "unit": "h"},
      {"measurement": "Mean survival time, bioassay started when chemical was added", "setting": "stickleback; activated carbon 16 mg/l", "result": 12.0, "unit": "h"},
      {"measurement": "Mean survival time, bioassay started when chemical was added", "setting": "stickleback; activated carbon 32 mg/l", "result": 22.0, "unit": "h"},
      {"measurement": "Mean survival time, bioassay started 18 hours after chemical was added", "setting": "stickleback; activated carbon 32 mg/l, 1 fish did not die (observed 11 days)", "result": 95.0, "unit": "h"},
      {"measurement": "LC50 at 96 h", "setting": "in vivo", "result": 7.1, "unit": "µg/mL"},
      {"measurement": "LC50 at 192 h", "setting": "in vivo", "result": 2.8, "unit": "µg/mL"},
      {"measurement": "half-life", "setting": "[3]", "result": 15, "unit": "days"},
      {"measurement": "LC50", "setting": "chinook salmon", "result": 3.4, "unit": "µg/mL"},
      {"measurement": "concentration that killed longnose sucker", "setting": "longnose sucker", "result": "≥ 0.2", "unit": "mg/L"},
      {"measurement": "carp mortality", "setting": "carp; 0.6 mg/l, 192 h, artesian well water, 10 C", "result": "No fish died"},
      {"measurement": "time in which carp was killed", "setting": "carp; 1 mg/l, 20 g carp, artesian well water, 10 C", "result": 30, "unit": "h"},
      {"measurement": "carp killed", "setting": "carp; 1.5 mg/l, 72 h, artesian well water, 10 C", "result": 100, "unit": "%"},
      {"measurement": "carp killed", "setting": "carp; 1.5 mg/l, 96 h, artesian well water, 10 C", "result": 90, "unit": "%"},
      {"measurement": "carp killed", "setting": "carp; 2.0 mg/l, 24 h, artesian well water, 10 C", "result": 100, "unit": "%"},
      {"measurement": "selectivity to carp", "setting": "carp", "result": "specific for the carp and bullhead catfish"},
      {"measurement": "selectivity to carp", "setting": "carp; listed as 2, 2-dichlorovinyl diethyl phosphate", "result": "the carp died first"}
    ]}
  ]
}
